Measurements reported in patent publication US7659305B2, “Therapeutic proline derivatives” (Pfizer Inc., priority 2002, dated 2010).
Counter-ions that a name gives are not always drawn.

What follows are compounds tested against T1, α2δ subunit derived from porcine brain tissue (Sus scrofa, UniProt A0A287BIN3) (assay: radioligand binding assay using [3H]gabapentin). Conditions: [3H]gabapentin binding.
T1 construct: the α2δ subunit derived from porcine brain tissue; from tissue; host or cells: porcine brain tissue
T1 sequence (A0A287BIN3 25-1109): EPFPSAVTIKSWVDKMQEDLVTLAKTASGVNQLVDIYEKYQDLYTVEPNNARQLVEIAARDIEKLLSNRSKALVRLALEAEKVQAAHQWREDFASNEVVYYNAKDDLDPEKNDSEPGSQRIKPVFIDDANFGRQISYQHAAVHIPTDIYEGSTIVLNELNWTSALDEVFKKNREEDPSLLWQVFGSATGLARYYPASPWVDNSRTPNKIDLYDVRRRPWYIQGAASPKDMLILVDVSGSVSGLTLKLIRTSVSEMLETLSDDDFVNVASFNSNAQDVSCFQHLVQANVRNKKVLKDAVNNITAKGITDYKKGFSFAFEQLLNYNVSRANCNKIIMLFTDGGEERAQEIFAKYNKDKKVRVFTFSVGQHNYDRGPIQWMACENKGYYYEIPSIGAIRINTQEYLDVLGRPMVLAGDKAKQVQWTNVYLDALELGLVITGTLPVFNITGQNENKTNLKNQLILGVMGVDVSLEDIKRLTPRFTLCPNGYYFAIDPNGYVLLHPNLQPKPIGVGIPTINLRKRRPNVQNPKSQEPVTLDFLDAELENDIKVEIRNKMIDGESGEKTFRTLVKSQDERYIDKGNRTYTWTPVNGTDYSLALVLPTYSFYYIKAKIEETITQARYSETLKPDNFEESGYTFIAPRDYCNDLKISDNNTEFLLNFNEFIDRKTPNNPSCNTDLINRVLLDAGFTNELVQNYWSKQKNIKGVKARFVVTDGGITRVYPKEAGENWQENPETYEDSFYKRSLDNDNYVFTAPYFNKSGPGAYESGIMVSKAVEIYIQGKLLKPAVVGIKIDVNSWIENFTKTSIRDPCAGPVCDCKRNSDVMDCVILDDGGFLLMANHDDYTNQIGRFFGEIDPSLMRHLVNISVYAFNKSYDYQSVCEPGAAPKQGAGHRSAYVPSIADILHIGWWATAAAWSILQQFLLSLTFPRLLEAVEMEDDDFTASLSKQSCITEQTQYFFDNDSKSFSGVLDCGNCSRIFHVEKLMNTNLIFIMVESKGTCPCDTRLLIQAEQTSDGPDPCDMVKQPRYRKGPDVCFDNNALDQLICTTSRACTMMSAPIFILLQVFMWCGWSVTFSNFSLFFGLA
Source text: The biological activity of the alpha-2-delta ligands of the invention may be measured in a radioligand binding assay using [^3H]gabapentin and the α2δ subunit derived from porcine brain tissue (Gee N. S., Brown J. P., Dissanayake V. U. K., Offord J., Thurlow R., Woodruff G. N., J. Biol. Chem., 1996;271:5879-[…]). Results may be expressed in terms of μM or nM α2δ binding affinity.

Point of comparison: `O=C(O)[C@@H]1C[C@H](Oc2ccc3ccncc3c2)CN1` [Example 7], IC50 210 nM. Against it:
- O=C(O)[C@@H]1C[C@H](Sc2ccccc2)CN1 [Example 4, (2S,4S)-4-phenylthio-pyrrolidine-2-carboxylic acid] — 2.9-fold lower, 72 nM
- O=C(O)[C@@H]1C[C@H](Cc2cccc(F)c2F)CN1 [Example 11, (2S,4S)-4-(2.3-Difluoro-benzyl)-pyrrolidine-2-carboxylic acid mono-hydrochloride salt] — 14-fold lower, 15 nM
- O=C(O)[C@@H]1C[C@H](Cc2cc(F)ccc2F)CN1 [Example 12, (2S,4S)-4-(2,5-Difluoro-benzyl)-pyrrolidine-2-carboxylic acid mono hydrochloride salt] — 30-fold lower, 7 nM
- O=C(O)[C@@H]1C[C@H](Cc2cccc(F)c2)CN1 [Example 10, (2S,4S)-4-(3-Fluoro-benzyl)-pyrrolidine-2-carboxylic acid mono hydrochloride salt] — 19-fold lower, 11 nM
- O=C(O)[C@@H]1C[C@H](Oc2cccc(Cl)c2)CN1 [Example 8, (2S,4S)-4-(3-Chloro-phenoxy)-pyrrolidine-2-carboxylic acid] — 42-fold lower, 5 nM
- COc1cccc(C[C@@H]2CN[C@H](C(=O)O)C2)c1 [Example 14, (2S,4S)-4-(3-Methoxy-benzyl)-pyrrolidine-2-carboxylic acid mono hydrochloride salt] — 23-fold lower, 9 nM
- O=C(O)[C@@H]1C[C@H](OCc2ccc(Cl)cc2)CN1 [Example 2, (2S,4S)-4-[(4-chlorobenzyl)oxyl]-pyrrolidine-2-carboxylic acid] — 1.8-fold lower, 119 nM
